According to patent US8410112B2, “Compounds useful as inhibitors of ATR kinase” (Vertex Pharmaceuticals Incorporated, priority 2008, dated 2013):
pKi: −log10 of the molar value.

The compounds below were run against T1, full-length ATR (Homo sapiens, UniProt Q13535) (assay: ATR Inhibition Assay (radioactive-phosphate incorporation)). Settings: Ki(app); 5 nM full-length ATR, 10 μM ATP, 800 μM target peptide, 25° C.
T1 construct: in the presence of 5 nM full-length ATR
Assay type: biochemical
Summary of the method: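 Buffer was 50 mM Tris/HCl pH 7.5, 10 mM MgCl2, 1 mM DTT, with 5 nM enzyme, 10 μM [γ-33P]ATP and 800 μM target peptide at 25 °C. Compound was pre-incubated 10 min before ATP start, and the reaction was stopped after 24 h. Phosphocellulose filter capture; Ki(app) came from non-linear regression of background-corrected initial rates.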

T1 sequence (Q13535 whole entry): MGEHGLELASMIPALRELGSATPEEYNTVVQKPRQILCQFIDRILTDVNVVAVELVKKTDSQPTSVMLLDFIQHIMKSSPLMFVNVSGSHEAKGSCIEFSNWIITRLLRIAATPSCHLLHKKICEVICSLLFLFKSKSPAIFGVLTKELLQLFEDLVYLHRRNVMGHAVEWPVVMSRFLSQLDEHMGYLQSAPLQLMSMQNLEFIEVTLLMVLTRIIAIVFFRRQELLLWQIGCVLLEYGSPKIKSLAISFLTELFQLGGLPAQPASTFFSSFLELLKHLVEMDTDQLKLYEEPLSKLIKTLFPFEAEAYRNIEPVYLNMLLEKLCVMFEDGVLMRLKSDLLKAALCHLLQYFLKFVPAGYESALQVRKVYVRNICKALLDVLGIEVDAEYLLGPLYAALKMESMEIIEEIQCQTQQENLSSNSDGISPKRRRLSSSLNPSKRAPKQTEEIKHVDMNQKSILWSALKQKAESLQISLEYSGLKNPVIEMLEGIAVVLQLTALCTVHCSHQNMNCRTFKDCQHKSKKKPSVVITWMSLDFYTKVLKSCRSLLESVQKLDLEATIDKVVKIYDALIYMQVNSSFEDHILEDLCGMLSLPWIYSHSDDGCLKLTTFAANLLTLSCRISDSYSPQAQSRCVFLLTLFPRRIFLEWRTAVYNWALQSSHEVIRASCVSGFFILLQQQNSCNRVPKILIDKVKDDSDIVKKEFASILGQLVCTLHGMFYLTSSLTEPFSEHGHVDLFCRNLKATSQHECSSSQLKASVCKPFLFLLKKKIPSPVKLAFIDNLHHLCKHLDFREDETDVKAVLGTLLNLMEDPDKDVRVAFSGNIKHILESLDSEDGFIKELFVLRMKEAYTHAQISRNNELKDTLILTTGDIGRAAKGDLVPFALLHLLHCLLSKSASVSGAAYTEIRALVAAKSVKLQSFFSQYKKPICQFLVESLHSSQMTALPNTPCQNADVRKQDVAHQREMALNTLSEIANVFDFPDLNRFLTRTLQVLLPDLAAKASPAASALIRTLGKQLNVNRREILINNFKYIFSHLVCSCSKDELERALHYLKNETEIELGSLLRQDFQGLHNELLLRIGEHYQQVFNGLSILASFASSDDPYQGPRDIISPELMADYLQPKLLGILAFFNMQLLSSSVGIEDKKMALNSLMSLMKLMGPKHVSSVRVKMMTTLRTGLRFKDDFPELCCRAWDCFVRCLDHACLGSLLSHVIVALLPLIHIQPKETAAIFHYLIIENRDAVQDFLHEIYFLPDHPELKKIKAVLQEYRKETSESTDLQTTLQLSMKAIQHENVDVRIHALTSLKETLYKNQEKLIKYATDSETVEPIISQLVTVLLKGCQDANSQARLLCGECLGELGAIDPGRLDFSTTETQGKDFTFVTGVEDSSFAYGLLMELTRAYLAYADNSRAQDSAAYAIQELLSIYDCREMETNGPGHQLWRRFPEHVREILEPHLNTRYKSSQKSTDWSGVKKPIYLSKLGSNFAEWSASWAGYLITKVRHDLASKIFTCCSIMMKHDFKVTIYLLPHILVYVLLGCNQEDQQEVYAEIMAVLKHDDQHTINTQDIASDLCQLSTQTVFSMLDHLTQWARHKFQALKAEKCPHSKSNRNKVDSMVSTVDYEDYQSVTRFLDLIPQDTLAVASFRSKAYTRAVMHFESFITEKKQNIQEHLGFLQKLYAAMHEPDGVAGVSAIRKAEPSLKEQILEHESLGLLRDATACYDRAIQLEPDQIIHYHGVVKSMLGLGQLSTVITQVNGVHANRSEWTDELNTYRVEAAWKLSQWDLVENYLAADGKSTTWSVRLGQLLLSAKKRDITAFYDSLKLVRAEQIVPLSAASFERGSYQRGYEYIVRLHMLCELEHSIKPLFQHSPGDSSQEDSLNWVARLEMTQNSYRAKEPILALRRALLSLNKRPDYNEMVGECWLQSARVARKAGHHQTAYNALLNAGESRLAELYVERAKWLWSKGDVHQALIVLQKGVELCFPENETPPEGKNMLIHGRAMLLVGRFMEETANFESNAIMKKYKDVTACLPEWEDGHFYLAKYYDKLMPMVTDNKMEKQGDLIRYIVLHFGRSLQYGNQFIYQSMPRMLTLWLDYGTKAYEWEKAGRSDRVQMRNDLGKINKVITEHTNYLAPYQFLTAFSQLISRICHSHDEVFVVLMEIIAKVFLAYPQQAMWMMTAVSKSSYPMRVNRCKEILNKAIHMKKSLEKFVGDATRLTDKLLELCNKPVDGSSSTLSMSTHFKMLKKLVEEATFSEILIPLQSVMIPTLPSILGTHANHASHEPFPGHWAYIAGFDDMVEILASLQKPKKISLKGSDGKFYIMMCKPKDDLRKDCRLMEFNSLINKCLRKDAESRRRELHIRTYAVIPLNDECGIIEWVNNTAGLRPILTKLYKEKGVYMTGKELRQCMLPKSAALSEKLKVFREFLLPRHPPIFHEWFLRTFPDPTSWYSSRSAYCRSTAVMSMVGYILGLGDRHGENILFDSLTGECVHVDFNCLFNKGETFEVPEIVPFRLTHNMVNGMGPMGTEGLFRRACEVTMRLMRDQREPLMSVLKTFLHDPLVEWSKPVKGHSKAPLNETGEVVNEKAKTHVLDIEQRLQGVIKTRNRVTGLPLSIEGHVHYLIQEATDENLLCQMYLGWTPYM

pKi	Compound
6.00 to 7.00	CC(=O)N1CCN(c2cnc(N)c(-c3nc4ccc(C)cc4[nH]3)n2)CC1 [Compound I-10, 1-(4-(5-amino-6-(6-methyl-1H-benzo[d]imidazol-2-yl)pyrazin-2-yl)piperazin-1-yl)ethanone]
6.00 to 7.00	Nc1ncc(N2CCN(S(=O)(=O)c3ccccc3)CC2)nc1-c1nnc(-c2ccccc2)o1 [Compound I-196, 3-(5-phenyl-1,3,4-oxadiazol-2-yl)-5-(4-(phenylsulfonyl)piperazin-1-yl)pyrazin-2-amine]
5.00 to 6.00	CC(=O)N[C@@H]1CCN(c2cnc(N)c(-c3nc4ccc(C)cc4[nH]3)n2)C1 [Compound I-9, (R)-N-(1-(5-amino-6-(6-methyl-1H-benzo[d]imidazol-2-yl)pyrazin-2-yl)pyrrolidin-3-yl)ethanamide]
5.00 to 6.00	CC(=O)N1CCCN(c2cnc(N)c(-c3nc4ccc(C)cc4[nH]3)n2)CC1 [Compound I-1, 1-(4-(5-amino-6-(6-methyl-1H-benzo[d]imidazol-2-yl)pyrazin-2-yl)-1,4-diazepan-1-yl)ethanone]
6.00 to 7.00	CNCc1ccc(-c2nnc(-c3nc(C4=CCC(C)CC4)cnc3N)o2)cc1 (stereo not shown) [Compound I-336, 3-(5-(4-((Methylamino)methyl)phenyl)-1,3,4-oxadiazol-2-yl)-5-(4-methylcyclohex-1-enyl)pyrazin-2-amine]
6.00 to 7.00	Nc1ncc(C2=CCNCC2)nc1-c1nc2ccccc2[nH]1 [Compound I-66, 3-(1H-benzo[d]imidazol-2-yl)-5-(1,2,3,6-tetrahydropyridin-4-yl)pyrazin-2-amine]
6.00 to 7.00	Nc1ncc(N2CCN(S(=O)(=O)c3cccs3)CC2)nc1C(=O)Nc1ccccn1 [Compound I-116, 3-amino-N-(pyridin-2-yl)-6-(4-(thiophen-2-ylsulfonyl)piperazin-1-yl)pyrazine-2-carboxamide]
5.00 to 6.00	CCC(CC)C(=O)N1CCN(c2cnc(N)c(-c3nc4ccccc4[nH]3)n2)CC1 [Compound I-175, 1-(4-(5-amino-6-(1H-benzo[d]imidazol-2-yl)pyrazin-2-yl)piperazin-1-yl)-2-ethylbutan-1-one]
> 7.00	CCNCc1ccc(-c2nnc(-c3nc(N4CCCC4)cnc3N)o2)cc1 [Compound I-343, 3-[5-[4-(Aethylaminomethyl)phenyl]-1,3,4-oxadiazol-2-yl]-5-pyrrolidin-1-yl-pyrazin-2-amine]
6.00 to 7.00	Nc1ncc(N2CCN(S(=O)(=O)C3CCCC3)CC2)nc1C(=O)Nc1ccccn1 [Compound I-248, 3-amino-6-(4-(cyclopentylsulfonyl)piperazin-1-yl)-N-(pyridin-2-yl)pyrazine-2-carboxamide]
5.00 to 6.00	Cc1ccc2nc(-c3nc(N4CCC(C#N)CC4)cnc3N)[nH]c2c1 [Compound I-34, 1-(5-amino-6-(6-methyl-1H-benzo[d]imidazol-2-yl)pyrazin-2-yl)piperidine-4-carbonitrile]
6.00 to 7.00	Cn1cnc(S(=O)(=O)N2CCN(c3cnc(N)c(-c4nc5ccccc5[nH]4)n3)CC2)c1 [Compound I-91, 3-(1H-benzo[d]imidazol-2-yl)-5-(4-(1-methyl-1H-imidazol-4-ylsulfonyl)piperazin-1-yl)pyrazin-2-amine]
> 7.00	Cc1ccc2nc(-c3nc(C4=CCN(S(=O)(=O)N(C)C)CC4)cnc3N)[nH]c2c1 [Compound I-23, 4-(5-amino-6-(6-methyl-1H-benzo[d]imidazol-2-yl)pyrazin-2-yl)-N,N-dimethyl-5,6-dihydropyridine-1(2H)-sulfonamide]
5.00 to 6.00	CNCc1ccc(-c2nnc(-c3nc(C4CC4C(=O)N(C)CCOC)cnc3N)o2)cc1 (stereo not shown) [Compound I-377]
6.00 to 7.00	CCS(=O)(=O)N1CCN(c2cnc(N)c(C(=O)Nc3ccccc3)n2)CC1 [Compound I-20, 3-amino-6-(4-(ethylsulfonyl)piperazin-1-yl)-N-phenylpyrazine-2-carboxamide]
6.00 to 7.00	Nc1ncc(N2CCN(S(=O)(=O)c3cccnc3)CC2)nc1C(=O)Nc1ccccn1 [Compound I-233, 3-amino-N-(pyridin-2-yl)-6-(4-(pyridin-3-ylsulfonyl)piperazin-1-yl)pyrazine-2-carboxamide]
> 7.00	Nc1ncc(C2=CCN(C(=O)C3CCCCC3)CC2)nc1-c1nc2ccccc2[nH]1 [Compound I-259, (4-(5-amino-6-(1H-benzo[d]imidazol-2-yl)pyrazin-2-yl)-5,6-dihydropyridin-1(2H)-yl)(cyclohexyl)methanone]
5.00 to 6.00	Nc1ncc(N2CCC3(CCNC3)C2)nc1-c1nnc(-c2ccccc2)o1 (stereo not shown) [Compound I-340, 3-(5-Phenyl-1,3,4-oxadiazol-2-yl)-5-(2,7-diazaspiro[4.4]nonan-2-yl)pyrazin-2-amine]
> 7.00	NCCCS(=O)(=O)N1CC=C(c2cnc(N)c(-c3nc4ccccc4[nH]3)n2)CC1 [Compound I-331, 5-(1-(3-aminopropylsulfonyl)-1,2,3,6-tetrahydropyridin-4-yl)-3-(1H-benzo[d]imidazol-2-yl)pyrazin-2-amine]
5.00 to 6.00	CNC(=O)[C@@H]1CCN(c2cnc(N)c(-c3nc4ccc(C)cc4[nH]3)n2)C1 [Compound I-77, (R)-1-(5-amino-6-(6-methyl-1H-benzo[d]imidazol-2-yl)pyrazin-2-yl)-N-methylpyrrolidine-3-carboxamide]
> 7.00	CNCc1ccc(-c2nnc(-c3nc(N4CC[C@H](CNC(C)=O)C4)cnc3N)o2)cc1 [Compound I-317, N-[[(3R)-1-[5-Amino-6-[5-[4-(methylaminomethyl)phenyl]-1,3,4-oxadiazol-2-yl]pyrazin-2-yl]pyrrolidin-3-yl]methyl]acetamide]
5.00 to 6.00	Nc1ncc(N2CCN(C(=O)c3ccccn3)CC2)nc1C(=O)Nc1ccccn1 [Compound I-148, 3-amino-N-(pyridin-2-yl)-6-(4-(pyridine-2-carbonyl)piperazin-1-yl)pyrazine-2-carboxamide]
5.00 to 6.00	CC#CCOC(=O)N1CCN(c2cnc(N)c(-c3nc4ccccc4[nH]3)n2)CC1 [Compound I-272, but-2-ynyl 4-(5-amino-6-(1H-benzo[d]imidazol-2-yl)pyrazin-2-yl)piperazine-1-carboxylate]
6.00 to 7.00	Nc1ncc(N2CCN(S(=O)(=O)Cc3ccccc3)CC2)nc1C(=O)Nc1ccccn1 [Compound I-253, 3-amino-6-(4-(benzylsulfonyl)piperazin-1-yl)-N-(pyridin-2-yl)pyrazine-2-carboxamide]
> 7.00	CCOC(=O)N1CC=C(c2cnc(N)c(-c3nnc(-c4ccccc4)o3)n2)CC1 [Compound I-238, ethyl 4-(5-amino-6-(5-phenyl-1,3,4-oxadiazol-2-yl)pyrazin-2-yl)-5,6-dihydropyridine-1(2H)-carboxylate]
> 7.00	CC#CCOC(=O)N1CC=C(c2cnc(N)c(-c3nnc(-c4ccccc4)o3)n2)CC1 [Compound I-115, but-2-ynyl 4-(5-amino-6-(5-phenyl-1,3,4-oxadiazol-2-yl)pyrazin-2-yl)-5,6-dihydropyridine-1(2H)-carboxylate]
6.00 to 7.00	Nc1ncc(C2=CCN(C(=O)N3CCNCC3)CC2)nc1-c1nc2ccccc2[nH]1 [Compound I-280, (4-(5-amino-6-(1H-benzo[d]imidazol-2-yl)pyrazin-2-yl)-5,6-dihydropyridin-1(2H)-yl)(piperazin-1-yl)methanone]
> 7.00	CCC(CC)C(=O)N1CC=C(c2cnc(N)c(-c3nnc(-c4ccccc4)o3)n2)CC1 [Compound I-131, 1-(4-(5-amino-6-(5-phenyl-1,3,4-oxadiazol-2-yl)pyrazin-2-yl)-5,6-dihydropyridin-1(2H)-yl)-2-ethylbutan-1-one]
